{"source": "patent US5397781A", "about": "“Pyrimidine derivatives” (Mochida Pharmaceutical Company, Limited, priority 1992, dated 1995)", "key": {"[1]": {"molecular_target": "T1, ACAT (Rattus norvegicus, UniProt Q7TQM4)", "T1 construct": "Liver microsomes as an enzyme sample of ACAT were prepared from overnight-fasted male rats; from tissue; host or cells: liver of overnight-fasted male rats, 6 weeks old; microsomes", "T1 sequence (Q7TQM4 1-524)": "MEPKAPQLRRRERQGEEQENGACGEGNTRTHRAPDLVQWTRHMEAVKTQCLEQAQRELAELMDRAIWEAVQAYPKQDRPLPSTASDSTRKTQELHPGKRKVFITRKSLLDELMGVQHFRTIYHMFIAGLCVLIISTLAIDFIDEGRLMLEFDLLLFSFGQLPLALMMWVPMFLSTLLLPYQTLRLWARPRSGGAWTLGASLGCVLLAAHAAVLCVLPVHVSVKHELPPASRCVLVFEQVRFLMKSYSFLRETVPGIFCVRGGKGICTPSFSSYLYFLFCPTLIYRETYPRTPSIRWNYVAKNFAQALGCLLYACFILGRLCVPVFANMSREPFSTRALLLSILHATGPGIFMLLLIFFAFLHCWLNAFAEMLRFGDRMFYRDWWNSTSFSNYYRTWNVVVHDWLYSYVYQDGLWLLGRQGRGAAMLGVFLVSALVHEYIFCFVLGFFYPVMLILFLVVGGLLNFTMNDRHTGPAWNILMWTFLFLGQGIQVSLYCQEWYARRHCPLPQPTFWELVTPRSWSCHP", "experiment": "Inhibitory effect on microsomal ACAT activity in rat liver", "assay_type": "biochemical", "settings": "rat liver microsomes; read-out: IC50 (50% inhibition of cholesterol esterification)"}, "[2]": {"test_system": "macrophages", "experiment": "Inhibitory effect on cholesteryl ester accumulation in macrophages", "assay_type": "cell-based, mouse (ddy-family male mice)", "settings": "Macrophage; mouse peritoneal macrophages, β-VLDL, [3H]oleic acid, 3 hrs; read-out: Inhibition activity on cholesteryl ester accumulation (IC50 grade)", "experimental": "Inhibitory effect on cholesteryl ester accumulation in macrophages.\nNamely resident peritoneal cells suspended in phosphate-buffered saline (PBS) were plated in plastic Petri dishes (35 mm×10 mm) at a density of 2×10^6 cells. The adherent macrophages were cultured overnight at 37° C. in Dalbecco's modified Eagle medium (DME) containing 10% fetal bovine serum (FCS) under humidified 5% CO2. […] After discarding the medium, each macrophage monolayer was washed with PBS and lipids were extracted with hexane/isopropyl alcohol (3:2). Cholesteryl esters in the extract were separated by thin-layer chromatography and the radioactivity was measured by liquid scintillation counter."}, "[3]": {"test_system": "serum total cholesterol", "experiment": "Hypocholesterolemic effect on cholesterol feeding rats", "assay_type": "in vivo, male Wistar rats", "settings": "Rattus norvegicus, oral, high cholesterol diet rats, read-out: % reduction of serum total cholesterol; for inhibition in vivo at 10 mg/kg: 10 mg/kg/day", "experimental": "Hypocholesterolemic effect on cholesterol feeding rats. Male Wistar rats aged 7 weeks old were fed a diet (CE®) supplemented with 2%(w/w) cholesterol, 0.5%(w/w) sodium cholate, 10%(w/w) lard, 0.2%(w/w) propylthiouracyl and 5%(w/w) sucrose, for 3 days. Following 3 days, the compounds of the present invention were administered orally, and the animals were maintained with the high cholesterol diet. On the next day of final drug administration, blood was drown and serum total cholesterol-levels were measured enzymatically by autoanalyzer. CL277082 was used as a reference compound."}, "[4]": {"test_system": "male Wistar rats", "experiment": "Acute toxicity", "assay_type": "in vivo", "settings": "7 days observation", "source_text": "The pyrimidine derivatives of the present invention were examined for acute toxicity by using male Wistar rats fasted over night aged 7 weeks old."}}, "data": [{"smiles": "CCCN(CCCC(=O)Nc1c(S)nc(C)nc1N(CCC)c1ccccc1)c1ccccc1", "note": "[Example 143, N-[4-mercapto-2-methyl-6-(N-phenyl-N-propylamino)pyrimidin-5-yl]-4-(N-phenyl-N-propylamino)butanamide]", "values": [{"measurement": "IC50", "setting": "[1]", "result": 80, "unit": "nM"}, {"measurement": "IC50", "setting": "[2]", "result": "1000 to 10000", "unit": "nM"}, {"measurement": "inhibition in vivo at 30 mg/kg", "setting": "[3]; 30 mg/kg/day", "result": 20, "unit": "%"}, {"measurement": "lethal incident (acute toxicity)", "setting": "[4]; single oral dose 2 g/kg", "result": "no lethal incident was observed"}]}, {"smiles": "CCCCCCN(CCCC(=O)Nc1c(S)nc(C)nc1N(CC)CC)c1ccccc1", "note": "[Example 155, N-[4-(N,N-diethylamino)-6-mercapto-2-methylpyrimidin-5-yl]-4-(N-hexyl-N-phenylamino)butanamide]", "values": [{"measurement": "IC50", "setting": "[1]", "result": 88, "unit": "nM"}, {"measurement": "inhibition in vivo at 10 mg/kg", "setting": "[3]", "result": 66, "unit": "%"}, {"measurement": "lethal incident (acute toxicity)", "setting": "[4]; single oral dose 1 g/kg", "result": "no lethal incident was observed"}]}, {"smiles": "CCCCCCN(CCCC(=O)Nc1c(SC)nc(OC)nc1N(CC)CC)c1ccccc1", "note": "[Example 233, N-[4-(N,N-diethylamino)-2-methoxy-6-methylthiopyrimidin-5-yl]-4-(N-hexyl-N-phenylamino)butanamide]", "values": [{"measurement": "inhibition in vivo at 10 mg/kg", "setting": "[3]", "result": 76, "unit": "%"}, {"measurement": "lethal incident (acute toxicity)", "setting": "[4]; single oral dose 1 g/kg", "result": "no lethal incident was observed"}]}, {"smiles": "CCCCN(CCCC)c1nc(C)nc(SC)c1NC(=O)CCCCN(CCC)c1ccccc1", "note": "[Example 247, N-[4-(N,N-dibutylamino)-2-methyl-6-methylthiopyrimidin-5-yl]-5-(N-phenyl-N-propylamino)pentanamide]", "values": [{"measurement": "IC50", "setting": "[1]", "result": 16, "unit": "nM"}, {"measurement": "IC50", "setting": "[2]", "result": "10 to 100", "unit": "nM"}, {"measurement": "inhibition in vivo at 10 mg/kg", "setting": "[3]", "result": 76, "unit": "%"}, {"measurement": "lethal incident (acute toxicity)", "setting": "[4]; single oral dose 1 g/kg", "result": "no lethal incident was observed"}]}, {"smiles": "CCCCCCN(CCCC(=O)Nc1c(SCC)nc(C)nc1N(CC)CC)c1ccccc1", "note": "[Example 260, N-[4-(N,N-dietylamino)-6-ethylthio-2-methylpyrimidin-5-yl]-4-(N-hexyl-N-phenylamino)butanamide]", "values": [{"measurement": "inhibition in vivo at 10 mg/kg", "setting": "[3]", "result": 70, "unit": "%"}, {"measurement": "lethal incident (acute toxicity)", "setting": "[4]; single oral dose 1 g/kg", "result": "no lethal incident was observed"}]}, {"smiles": "CCCCCCN(CCCC(=O)Nc1c(SC(C)C)nc(C)nc1N(CC)CC)c1ccccc1", "note": "[Example 262, N-[4-(N,N-dietylamino)-6-isopropylthio-2-methylpyrimidin-5-yl]-4-(N-hexyl-N-phenylamino)butanamide]", "values": [{"measurement": "inhibition in vivo at 10 mg/kg", "setting": "[3]", "result": 53, "unit": "%"}, {"measurement": "lethal incident (acute toxicity)", "setting": "[4]; single oral dose 1 g/kg", "result": "no lethal incident was observed"}]}]}
